Reference: patent US9789096B2, “Methods and compositions for selective and targeted cancer therapy” (Board of Regents of the University of Texas System, priority 2013, dated 2017)
Read-outs that look alike come from different tables or passages of the source.

Experiments:
Type in all cases: cell-based, human
[1] = tested on: H2122; test: Cell viability dose-response, H2122; conditions: for AC50: NCI-H2122, Table 8, 12-point dose-response starting at 50 micromolar; for IC50: read-out: IC50 (uM) vs indicated non-small cell lung cancer cell line H2122
Procedure, shortened: (§1)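 Cells plated at 15% confluence in RPMI-1640 with 5% FBS and 2 mM L-glutamine, treated with compound in a 12-point, 3-fold dilution series from 50 micromolar, in duplicate. ATP measured by Cell Titer Glo after 4 days; IC50 taken from the dose-response curve.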

[2] = tested on: H2073; test: Cell viability dose-response, H2073; conditions: for AC50: NCI-H2073, Table 8, 12-point dose-response starting at 50 micromolar; for IC50: read-out: IC50 (uM) vs indicated non-small cell lung cancer cell line H2073
Procedure: FIG. 6A. […] Cell viability is plotted vs. compound concentration. Compound was added to cells plated at 15% confluence in 96-well plates in RPMI-1640 media supplemented with 5% Fetal Bovine Serum and 2 mM L-Glutamine. After 4 days of incubation, ATP levels were measured using Cell Titer Glo (Promega). Data are presented as the average of 2 replicates ±SEM.
Selectivity may be measured by the half maximal inhibitory concentration (IC50), which, as used herein, is a measure of the effectiveness of a compound in killing cells. This quantitative measure indicates how much of a particular compound is needed to kill a particular cell population by half (e.g., as indicated by the amount of ATP). […] The IC50 can be determined by constructing a dose-response curve. The lower the IC50, the higher the potency, and the greater the difference between IC50 values for different cell lines (e.g., sensitive lines vs. insensitive lines, and sensitive lines vs. normal lines) the greater the selectivity. […]
With this information, we synthesized and tested a series of small molecules derived in conception from the oxalamide and chromone scaffold including N-acyl ureas, as shown in Tables 6-8. Each compound was tested in a 12-point dose-response study starting at 50 micromolar and decreasing in 3-fold increments to sub-nanomolar concentrations, in duplicate. Additionally, one or more additional cell line was tested in the same way.

[3] = tested on: H1819; test: Cell viability dose-response, H1819; conditions: for AC50: NCI-H1819, Table 8, 12-point dose-response starting at 50 micromolar; for IC50: read-out: IC50 (uM) vs indicated non-small cell lung cancer cell line H1819
Procedure, shortened: as §1

[4] = Homo sapiens, NCI-H2122, Tables 3 and 4
[5] = Homo sapiens, NCI-H2073, Tables 3 and 4
[6] = Homo sapiens, NCI-H1819, Tables 3 and 4

Row | SMILES | AC50 ([1]; Homo sapiens) [µM] | AC50 ([2]; Homo sapiens) [µM] | AC50 ([3]; Homo sapiens) [µM] | also measured
1 | C#CCOc1cccc(-c2coc3cc(OCc4cnn(-c5ccccc5)c4)ccc3c2=O)c1 [SW 209087-1] | 0.106 | 49.5 | 49.5 | –
2 | O=c1c(Cc2ccccn2)coc2cc(OCc3cnn(-c4ccccc4)c3)ccc12 [SW209187-1] | 0.28 | 49.5 | 49.5 | –
3 | C#CCOc1ccc(C(=O)c2ccc(C(=O)Nc3nc4ccc(OC)cc4s3)cc2)cc1 [SW209049-2] | – | – | – | IC50 ([1]; Tables 3 and 4): 0.131 µM; IC50 ([2]; Tables 3 and 4): 18 µM; IC50 ([3]; Tables 3 and 4): 21 µM
4 | C=CCc1coc2cc(OCc3cnn(-c4ccccc4)c3)ccc2c1=O [SW209022-1] | 0.323 | 49.5 | 47.1 | –
5 | O=c1c(Cc2nccs2)coc2cc(OCc3cnn(-c4ccccc4)c3)ccc12 [SW209380-1] | 0.352 | 17.7 | 21.2 | –
6 | COC(=O)c1ccc2nc(NC(=O)c3ccc(C(=O)c4ccccc4)cc3)sc2c1 [SW211561-1] | – | – | – | IC50 [1, 4]: 7.75 µM; IC50 [2, 5]: 29.1 µM; IC50 [3, 6]: 16.5 µM
7 | O=C1/C(=C/c2ccc(F)cc2)COc2cc(OCc3cnn(-c4ccccc4)c3)ccc21 [SW209194-1] | 0.876 | 49.5 | 49.5 | –
8 | O=C(CCc1ccc(Br)cc1)Cn1ccnc1 [SW209201-1] | ≥ 49.5 | 49.5 | 49.5 | –
9 | O=C1/C(=C/c2ccccc2F)COc2cc(OCc3cnn(-c4ccccc4)c3)ccc21 [SW209196-1] | 0.827 | 49.5 | 41 | –
10 | O=c1c(Cc2ccncc2)coc2cc(OCc3cnn(-c4ccccc4)c3)ccc12 [SW209193-1] | 0.549 | 49.5 | 49.5 | –
11 | O=c1c(Cc2cccnc2)coc2cc(OCc3cnn(-c4ccccc4)c3)ccc12 [SW209203-1] | 3.17 | 44 | 49.5 | –
12 | Nc1ccc(C(=O)Nc2nc3ccccc3s2)cc1 [SW209563-1] | – | – | – | IC50 [1, 4]: 0.027 µM; IC50 [2, 5]: 0.184 µM; IC50 [3, 6]: 19.7 µM
13 | COC(=O)c1ccc(C(=O)Nc2nc3ccc(N)cc3s2)cc1 [SW001296-3] | – | – | – | IC50 ([1]; Tables 3 and 4): 18.5 µM; IC50 ([2]; Tables 3 and 4): 49.5 µM; IC50 [3, 6]: 28.6 µM
14 | OC(CCc1ccc(Br)cc1)Cn1ccnc1 (stereo not drawn) [SW 209089-1] | ≥ 49.5 | 49.5 | 49.5 | –
15 | NCCCCCOc1cccc(CC2=CCc3cc(OCc4cnn(-c5ccccc5)c4)ccc3C2=O)c1 [SW209383-1] | 2.37 | 49.5 | 49.5 | –
16 | O=C(Nc1nc2cnccc2s1)c1ccccc1 [SW209562-1] | – | – | – | IC50 [1, 4]: ≥ 49.5 µM; IC50 [2, 5]: 49.5 µM; IC50 [3, 6]: ≥ 49.5 µM
17 | O=C1/C(=C/c2ncc[nH]2)COc2cc(OCc3cnn(-c4ccccc4)c3)ccc21 [SW209384-1] | 14 | 9.68 | 15.5 | –
18 | C#CCc1coc2cc(OCc3cnn(-c4ccccc4)c3)ccc2c1=O [SW209021-1] | 0.846 | 49.5 | 49.5 | –
19 | O=C1/C(=C/c2cccc(C(F)(F)F)c2)COc2cc(OCc3cnn(-c4ccccc4)c3)ccc21 [SW209197-1] | 0.042 | 26 | 21.8 | –
20 | O=c1c(Cc2cccc(O)c2)coc2cc(OCc3cnn(-c4ccccc4)c3)ccc12 [SW209381-1] | 7.03 | 49.5 | 49.5 | –
21 | O=c1c(Cc2ccc(Cl)nc2)coc2cc(OCc3cnn(-c4ccccc4)c3)ccc12 [SW209382-1] | 0.325 | 0.244 | 49.5 | –
22 | C#CCOc1ccc(C(=O)c2ccc(C(=O)Nc3nc4ccc(OC)cc4s3)cc2)cc1 [SW209049-1] | – | – | – | IC50 [1, 4]: 0.131 µM; IC50 ([2]; Tables 3 and 4): 81 µM; IC50 [3, 6]: 21 µM
